Experimental data from patent US12344610B2, “APOL1 inhibitors and methods of use” (Maze Therapeutics, Inc., priority 2022, dated 2025).

Each molecule was assayed on Trypanosoma brucei Lister 427 VSG221 with APOL1 G0 recombinant protein (assay: APOL1 G0 trypanosome cell rescue assay (Example B5)). Conditions: Trypanosoma brucei, 20 h, read-out: APOL1 G0 Trypanosome Rescue EC50, Trypanosoma brucei Lister 427 VSG221 with APOL1 G0 recombinant protein, 20 hours, CellTiter-Glo; geometric mean of at least 2 assay runs; † = single assay run.
Type: cell-based
How it was run: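 Viability read by CellTiter-Glo luminescence after 20 h co-incubation (37° C, 5% CO2) of 250 trypanosomes/well in modified HMI-9 with test compound (duplicate 11-point, 2-fold dilutions, 0.4% DMSO) and APOL1 protein, […]. Protein: mature residues 28-398, E. coli inclusion-body refolded, tag cleaved, in DDM.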

| Structure (SMILES) | EC50 [nM] |
| --- | --- |
| CS(=O)(=O)C1(c2c(F)cc(OCCN3CCC4(CC3)C(=O)Nc3ccc(Cl)cc34)cc2F)COC1 [Compound 136, 5-chloro-1′-{2-[3,5-difluoro-4-(3-methanesulfonyloxetan-3-yl)phenoxy]ethyl}-1,2-dihydrospiro[indole-3,4′-piperidin]-2-one] | 31.5 |
| CC(c1c(F)cc(OCCN2CCC3(CC2)C(=O)Nc2ccc(C#N)cc23)cc1F)S(C)(=O)=O (stereo not drawn) [Compound 137, 1′-{2-[3,5-difluoro-4-(1-methanesulfonylethyl)phenoxy]ethyl}-2-oxo-1,2-dihydrospiro[indole-3,4′-piperidine]-5-carbonitrile] | 322 |
| Cc1cc(OCCN2CCC3(CC2)C(=O)Nc2ccc(C#N)cc23)cnc1S(C)(=O)=O [Compound 140, 1′-{2-[(6-methanesulfonyl-5-methylpyridin-3-yl)oxy]ethyl}-2-oxo-1,2-dihydrospiro[indole-3,4′-piperidine]-5-carbonitrile] | 408 |
| CC(C)N1C(=O)Cc2cc(OCCN3CCC4(CC3)C(=O)Nc3ccc(C#N)cc34)ccc21 [Compound 144, 2-oxo-1′-(2-{[2-oxo-1-(propan-2-yl)-2,3-dihydro-1H-indol-5-yl]oxy}ethyl)-1,2-dihydrospiro[indole-3,4′-piperidine]-5-carbonitrile] | 224 |
| CC(C)N1C(=O)Cc2cc(OCCN3CCC4(CC3)C(=O)Nc3ccc(Cl)cc34)ccc21 [Compound 145, 5-chloro-1′-(2-{[2-oxo-1-(propan-2-yl)-2,3-dihydro-1H-indol-5-yl]oxy}ethyl)-1,2-dihydrospiro[indole-3,4′-piperidin]-2-one] | 86.5 |
| CN1Cc2cc(OCCN3CCC4(CC3)C(=O)Nc3ccc(Cl)cc34)ccc2C1=O [Compound 146, 5-chloro-1′-{2-[(2-methyl-1-oxo-2,3-dihydro-1H-isoindol-5-yl)oxy]ethyl}-1,2-dihydrospiro[indole-3,4′-piperidin]-2-one] | 346 |
| CN=S(C)(=O)c1ccc(OCCN2CCC3(CC2)C(=O)Nc2ccc(Cl)cc23)cc1 (stereo not drawn) [Compound 147, 5-chloro-1′-(2-{4-[methyl(methylimino)oxo-λ^6-sulfanyl]phenoxy}ethyl)-1,2-dihydrospiro[indole-3,4′-piperidin]-2-one] | 155 |
| CN=S(C)(=O)c1ccc(OCCN2CCC3(CC2)C(=O)Nc2ccc(C#N)cc23)cc1 (stereo not drawn) [Compound 150, 1′-(2-{4-[methyl(methylimino)oxo-λ^6-sulfanyl]phenoxy}ethyl)-2-oxo-1,2-dihydrospiro[indole-3,4′-piperidine]-5-carbonitrile] | 1440 |
| CN1CCc2cc(OCCN3CCC4(CC3)C(=O)Nc3ccc(Cl)cc34)ccc2S1(=O)=O [Compound 153, 6-(2-{5-chloro-2-oxo-1,2-dihydrospiro[indole-3,4′-piperidin]-1′-yl}ethoxy)-2-methyl-3,4-dihydro-2H-1λ^6,2-benzothiazine-1,1-dione] | 52.2 |
| CN1CCc2cc(OCCN3CCC4(CC3)C(=O)Nc3ccc(C#N)cc34)ccc2S1(=O)=O [Compound 154, 1′-{2-[(2-methyl-1,1-dioxo-3,4-dihydro-2H-1λ^6,2-benzothiazin-6-yl)oxy]ethyl}-2-oxo-1,2-dihydrospiro[indole-3,4′-piperidine]-5-carbonitrile] | 328 |
| CS(=O)(=O)c1ccc(OCCN2CCC3(CC2)C(=O)Nc2ccc(Cl)cc23)cc1Cl [Compound 155, 5-chloro-1′-[2-(3-chloro-4-methanesulfonylphenoxy)ethyl]-1,2-dihydrospiro[indole-3,4′-piperidin]-2-one] | 25.9 |
| CS(=O)(=O)c1ccc(OCCN2CCC3(CC2)C(=O)Nc2ccc(C#N)cc23)cc1Cl [Compound 156, 1′-[2-(3-chloro-4-methanesulfonylphenoxy)ethyl]-2-oxo-1,2-dihydrospiro[indole-3,4′-piperidine]-5-carbonitrile] | 96.6 |
| CC(C)(C#N)c1ccc(OCCN2CCC3(CC2)C(=O)Nc2ccc(C#N)cc23)cc1 [Compound 157, 1′-{2-[4-(1-cyano-1-methylethyl)phenoxy]ethyl}-2-oxo-1,2-dihydrospiro[indole-3,4′-piperidine]-5-carbonitrile] | 109 |
| CC1(S(=O)(=O)c2ccc(OCCN3CCC4(CC3)C(=O)Nc3ccc(Cl)cc34)cn2)COC1 [Compound 158, 5-chloro-1′-[2-({6-[(3-methyloxetan-3-yl)sulfonyl]pyridin-3-yl}oxy)ethyl]-1,2-dihydrospiro[indole-3,4′-piperidin]-2-one] | 94.2 |
| CS(=O)(=O)C1(c2ccc(OCCN3CCC4(CC3)C(=O)N(CCO)c3ccc(Cl)cc34)cc2)COC1 [Compound 160, 5-chloro-1-(2-hydroxyethyl)-1′-{2-[4-(3-methanesulfonyloxetan-3-yl)phenoxy]ethyl}-1,2-dihydrospiro[indole-3,4′-piperidin]-2-one] | 109 |
| Cc1cc(OCCN2CCC3(CC2)C(=O)Nc2ccc(Cl)cc23)cnc1S(C)(=O)=O [Compound 161, 5-chloro-1′-{2-[(6-methanesulfonyl-5-methylpyridin-3-yl)oxy]ethyl}-1,2-dihydrospiro[indole-3,4′-piperidin]-2-one] | 76.3 |
| O=C1CCc2cc(OCCN3CCC4(CC3)C(=O)Nc3ccc(Cl)cc34)ccc2N1CCO [Compound 162, 5-chloro-1′-(2-{[1-(2-hydroxyethyl)-2-oxo-1,2,3,4-tetrahydroquinolin-6-yl]oxy}ethyl)-1,2-dihydrospiro[indole-3,4′-piperidin]-2-one] | 143 |
| CS(=O)(=O)c1ccc(OCCN2CCC3(CC2)C(=O)Nc2ccc(Cl)cc23)cc1OC(F)F [Compound 163, 5-chloro-1′-{2-[3-(difluoromethoxy)-4-methanesulfonylphenoxy]ethyl}-1,2-dihydrospiro[indole-3,4′-piperidin]-2-one] | 55.9 |
| CS(=O)(=O)c1ccc(OCCN2CCC3(CC2)C(=O)Nc2ccc(C#N)cc23)cc1OC(F)F [Compound 164, 1′-{2-[3-(difluoromethoxy)-4-methanesulfonylphenoxy]ethyl}-2-oxo-1,2-dihydrospiro[indole-3,4′-piperidine]-5-carbonitrile] | 211 |
| CS(=O)(=O)C1(c2ccc(OCCN3CCC4(CC3)C(=O)Nc3ccc(Cl)cc34)cc2C(F)(F)F)COC1 [Compound 165, 5-chloro-1′-{2-[4-(3-methanesulfonyloxetan-3-yl)-3-(trifluoromethyl)phenoxy]ethyl}-1,2-dihydrospiro[indole-3,4′-piperidin]-2-one] | 28.7 |
| CS(=O)(=O)C1(c2ccc(OCCN3CCC4(CC3)C(=O)Nc3ccc(C#N)cc34)cc2C(F)(F)F)COC1 [Compound 166, 1′-{2-[4-(3-methanesulfonyloxetan-3-yl)-3-(trifluoromethyl)phenoxy]ethyl}-2-oxo-1,2-dihydrospiro[indole-3,4′-piperidine]-5-carbonitrile] | 94 |
| O=C1Nc2ccc(Cl)cc2C12CCN(CCOc1ccc3c(c1)CCNS3(=O)=O)CC2 [Compound 167, 6-(2-{5-chloro-2-oxo-1,2-dihydrospiro[indole-3,4′-piperidin]-1′-yl}ethoxy)-3,4-dihydro-2H-1λ^6,2-benzothiazine-1,1-dione] | 98.4 |
| N#Cc1ccc2c(c1)C1(CCN(CCOc3ccc4c(c3)CCNS4(=O)=O)CC1)C(=O)N2 [Compound 168, 1′-{2-[(1,1-dioxo-3,4-dihydro-2H-1λ^6,2-benzothiazin-6-yl)oxy]ethyl}-2-oxo-1,2-dihydrospiro[indole-3,4′-piperidine]-5-carbonitrile] | 496 |
| CN1C(=O)Cc2cc(OCCN3CCC4(CC3)C(=O)Nc3ccc(C#N)cc34)cc(F)c21 [Compound 169, 1′-{2-[(7-fluoro-1-methyl-2-oxo-2,3-dihydro-1H-indol-5-yl)oxy]ethyl}-2-oxo-1,2-dihydrospiro[indole-3,4′-piperidine]-5-carbonitrile] | 619 |
| CC1(Oc2ncc(OCCN3CCC4(CC3)C(=O)Nc3ccc(Cl)cc34)cn2)COC1 [Compound 172, 5-chloro-1′-[2-({2-[(3-methyloxetan-3-yl)oxy]pyrimidin-5-yl}oxy)ethyl]-1,2-dihydrospiro[indole-3,4′-piperidin]-2-one] | 246 |
| CCS(=O)(=O)C1(c2ccc(OCCN3CCC4(CC3)C(=O)Nc3ccc(C#N)cc34)cc2)COC1 [Compound 174, 1′-(2-{4-[3-(ethanesulfonyl)oxetan-3-yl]phenoxy}ethyl)-2-oxo-1,2-dihydrospiro[indole-3,4′-piperidine]-5-carbonitrile] | 401 |
| CS(=O)(=O)C1(c2ccc(OCCN3CCC4(CC3)C(=O)Nc3ccc(Cl)cc34)cc2)CCC1 [Compound 180, 5-chloro-1′-{2-[4-(1-methanesulfonylcyclobutyl)phenoxy]ethyl}-1,2-dihydrospiro[indole-3,4′-piperidin]-2-one] | 35.2 |
| CS(=O)(=O)C1(c2ccc(OCCN3CCC4(CC3)C(=O)Nc3ccc(C#N)cc34)cc2)CCC1 [Compound 181, 1′-{2-[4-(1-methanesulfonylcyclobutyl)phenoxy]ethyl}-2-oxo-1,2-dihydrospiro[indole-3,4′-piperidine]-5-carbonitrile] | 158 |
| CS(=O)(=O)C1(c2ccc(OCCN3CCC4(CC3)C(=O)Nc3ccc(Cl)cc34)cc2)CC2(COC2)C1 [Compound 182, 5-chloro-1′-[2-(4-{6-methanesulfonyl-2-oxaspiro[3.3]heptan-6-yl}phenoxy)ethyl]-1,2-dihydrospiro[indole-3,4′-piperidin]-2-one] | 401 |
| CS(=O)(=O)C1(c2ccc(OCCN3CCC4(CC3)C(=O)N(CC(F)(F)F)c3ccc(C#N)cc34)cc2)COC1 [Compound 184, 1′-{2-[4-(3-methanesulfonyloxetan-3-yl)phenoxy]ethyl}-2-oxo-1-(2,2,2-trifluoroethyl)-1,2-dihydrospiro[indole-3,4′-piperidine]-5-carbonitrile] | 1600 |
